Assay results: patent publication US10143686B2, “Oxidosqualene cyclase as a protein target for anticancer therapeutics” (The Curators of the University of Missouri, priority 2010, dated 2018)
Where a name gives a salt, the structure may show the parent alone. Read-outs that look alike come from different tables or passages of the source.

Legend:
[1] = system: NCI-H23 lung cancer cells; assay: SRB cell viability assay, NCI-H23; format: cell-based; settings: Homo sapiens
Protocol: (§1) The effect of OSC inhibition was evaluated in additional cancer cell lines as well. Cancer cell lines may be purchased from ATCC (Manassas, Va.). The SRB assay has been employed for determination of the inhibitory effects of RO 48-8071 on growth of different cancer cells. Cells were seeded into 96-well plates and incubated overnight at 37° C. with 5% CO2. The culture medium was removed after 24 hours, and cells were washed with DMEM/F12 medium and then treated with various concentrations of RO 48-8071 in 5% FBS culture medium for 24 and 48 hours. Surviving or adherent cells were fixed in situ by withdrawing the growth medium, adding 100 μl PBS and 100 μl 50% trichloroacetic acid and then incubating at 4° C. for one hour. Cells were washed with ice-cold water, dried at room temperature (RT), and then stained with 50 μl 4% SRB for eight minutes at RT. Unbound dye was removed by washing with cold 1% acetic acid for five times, and plates were dried at RT. Bound stain was solubilized with 150 μl 10 mM Tris buffer and absorbance of samples was read at 520 nm with a SpecTRA MAX 190 microplate reader (Molecular Devices, Sunnyvale, Calif.). Six wells were used for each concentration, and each experiment was performed two to three times.
Effect of RO 48-8071 on lung cancer cell line H23 viability. […] The culture mediums employed 10% FBS RPMI-1640 for culture and 5% FBS RPMI-1640 for treatment.

[2] = system: normal mammary AG11132A cells; assay: SRB cell viability assay, normal mammary cells; format: cell-based; settings: 24 hours, FIG. 3
Protocol: (§2) The sulforhodamine B (SRB) assay was employed to evaluate the effect of OSC inhibitor Ro 48-8071 on viability of breast cancer and normal mammary gland cells with slight modification of the original procedure established at NCI. Accordingly, the cells were seeded in 96-well plates in 100 μl culture medium and incubated overnight at 37° C. with 5% CO2. […] The surviving or adherent cells were fixed in situ by withdrawing the growth medium and adding 100 μl of PBS and 100 μl of 50% cold trichloroacetic acid and then incubating at 4° C. for 1 h. The surviving cells were washed with ice-water, dried at room temperature (RT), and then stained with 50 μl 4% SRB for 8 min at RT. Unbound dye was removed by washing 5 times with cold 1% acetic acid, and the plates were dried at RT. Bound stain was solubilized with 150 μl 10 mM Tris buffer, and absorbance of samples were measured at 520 nm with a SpecTRA MAX 190 microplate reader (Sunnyvale, Calif.). In these experiments on BT-474, T47-D, and AG11132A cell lines, six wells were used for each concentration, and each experiment was performed at least twice.

[3] = system: BT-474 breast cancer cells; assay: SRB cell viability assay, BT-474; format: cell-based, human; settings: for IC50: Homo sapiens, BT-474, Breast (ER+ PR+)
Protocol: as §2, §1
Effect of RO 48-8071 on breast cancer cell line BT-474 viability. […] The culture mediums employed 10% FBS DMEM/F12 for culture and 5% FBS DMEM/F12 for treatment.

[4] = system: LNCaP prostate cancer cells; assay: SRB cell viability assay, LNCaP; format: cell-based; settings: Homo sapiens
Protocol: as §1
Effect of RO 48-8071 prostate cancer cell line LNCaP viability. […] The culture mediums employed 20% FBS RPMI-1640 for culture and 10% FBS RPMI-1640 for treatment.

[5] = system: PC-3 prostate cancer cells; assay: SRB cell viability assay, PC-3; format: cell-based; settings: Homo sapiens
Protocol: as §1
Effect of RO 48-8071 on prostate cancer cell line PC-3 viability. […]

[6] = system: H69AR lung cancer cells; assay: SRB cell viability assay, H69AR; format: cell-based; settings: Homo sapiens
Protocol: as §1
Effect of RO 48-8071 on lung cancer cell line H69AR viability. […] The culture mediums employed 20% FBS RPMI-1640 for culture and 10% FBS RPMI-1640 for treatment.

[7] = system: A549 lung cancer cells; assay: SRB cell viability assay, A549; format: cell-based; settings: Homo sapiens
Protocol: as §1
Effect of RO 48-8071 on lung cancer cell line A549 viability. […] The culture mediums employed 10% FBS F-12K for culture and 5% FBS F-12K for treatment.

[8] = system: HCC-1428 breast cancer cells; assay: SRB cell viability assay, HCC-1428; format: cell-based; settings: Homo sapiens, HCC1428, HCC-1428, Breast (ER+ PR+)
Protocol: as §1
Effect of RO 48-8071 on estrogen, progesterone, and HER-2/neu receptors positive breast cancer cell line HCC-1428 and ZR-75 viability. […]

[9] = system: LoVo colon cancer cells; assay: SRB cell viability assay, LoVo; format: cell-based; settings: Homo sapiens
Protocol: as §1
Effect of RO 48-8071 on colon cancer cell LoVo viability. […] The culture mediums employed 10% FBS F-12K for culture and 5% FBS F-12K for treatment.

[10] = system: PC-3 human prostate cancer xenograft; assay: PC-3 prostate tumor xenograft in nude mice
Protocol: Male athymic nu/nu nude mice, 6 weeks-old (21-25 g) were purchased from Harlan Laboratories, Inc. Human prostate cancer PC-3 cells, […] in 0.15 ml solution mixed with matrigel and DMEM/F12 medium (1/1, v/v) were injected into each flank of mouse subcutaneously, and both flanks of each mouse were injected. When tumor volume reached around 100 mm3, animals were randomly assigned to three groups and the treatment started with Ro 48-8071 (5 mg/kg/day or 20 mg/kg/day) via tail-vein injection for five days, followed by same treatment every other day for seven additional times as shown in the FIG. 14A. Animals in control group received the vehicle alone under identical conditions.

[11] = system: T47-D breast cancer cells; assay: SRB cell viability assay, T47-D; format: cell-based; settings: for IC50: Homo sapiens, T47D, Breast (ER+ PR+)
Protocol: as §2, §1
Effect of RO 48-8071 on breast cancer cell line T47-D viability. […] The culture mediums employed 10% FBS DMEM/F12 for culture and 5% FBS DMEM/F12 for treatment.

[12] = 24 hours, read-out: IC50 (μM) (24 hours)
[13] = 48 hours, read-out: IC50 (μM) (48 hours)

## C=CCN(C)CCCCCCOc1ccc(C(=O)c2ccc(Br)cc2)c(F)c1 [Ro 48-8071, 4′-[6-(Allylmethylamino)hexyloxy]-4-bromo-2′-fluorobenzophenone fumarate]
[1]; [12]
  IC50: 14.2 ± 1.28 µM
[1]; [13]
  IC50: 10.3 ± 0.303 µM
[2]
  inhibition of normal mammary cell viability compared with BT-474: significantly less inhibition
[3]; BT-474, 24 hours, dose-dependent, FIG. 2A
  effect on cell viability (SRB): significantly inhibit the viability
[3]; [12]
  IC50: 9.514 ± 0.05 µM
[3]; [13]
  IC50: 6.06 ± 0.233 µM
[4]; [12]
  IC50: 18.1 ± 3.22 µM
[4]; [13]
  IC50: 11.8 ± 0.431 µM
[5]; [12]
  IC50: 17.8 ± 1.29 µM
[5]; [13]
  IC50: 11.1 ± 0.35 µM
[6]; [12]
  IC50: 10.8 ± 0.609 µM
[6]; [13]
  IC50: 8.11 ± 0.355 µM
[7]; [12]
  IC50: 13.5 ± 0.928 µM
[7]; [13]
  IC50: 9.26 ± 0.454 µM
[8]; [12]
  IC50: 14.6 ± 0.417 µM
[8]; [13]
  IC50: 11.6 ± 0.336 µM
[9]; [12]
  IC50: 9.461 ± 0.07 µM
[9]; [13]
  IC50: 3.27 ± 0.541 µM
[10]; 5 or 20 mg/kg/day, tail-vein injection, P<0.05 ANOVA, FIG. 14A
  tumor volume versus control group: Significant differences compared with control group
[10]; PC-3 tumor-bearing nude mice
  toxicity at doses used for inhibiting tumor growth: non-toxic
[10]; PC-3 tumor-bearing nude mice, FIG. 14B
  animal weight, control versus treated groups: No significant difference
[11]; 24 hours, dose-dependent, FIG. 2B
  effect on cell viability (SRB): significantly inhibit the viability
[11]; [12]
  IC50: 11.5 ± 0.358 µM
[11]; [13]
  IC50: 7.76 ± 0.293 µM
